The record followed here is paper PMC12118597 (Science Advances, 2025).

Read-outs that look alike come from different tables or passages of the source.

The target in this test is SARS-CoV-2 NSP3 macrodomain (Mac1) (Severe acute respiratory syndrome coronavirus 2, UniProt P0DTD1). Nature of the test: biochemical. The class given is binding.
Where [1] appears, read: single dose concentration 200 μM (TS-FrankenROCS series).
The mark [2] stands for this setting: compound at 200 μM, mean of three to four technical replicates, read-out: % competition at 200 μM (preliminary HTRF screen).
[3] abbreviates: SARS CoV-2 macrodomain HTRF assay, single dose concentration 200 μM.
Where [4] appears, read: Single dose, concentration 200 μM.
[5] abbreviates: SARS CoV-2 macrodomain HTRF assay, single dose concentration 200 μM, read-out: Average % competition.
The mark [6] stands for this setting: read-out: IC50 (confirmatory HTRF dose-response screen).
[7] abbreviates: SARS CoV-2 macrodomain HTRF assay.
Where [8] appears, read: SARS CoV-2 macrodomain HTRF assay, dose-response, read-out: IC50.

`CC1c2ccsc2CCN1C(=O)Cc1csc(-c2ccccc2)n1` (stereo not drawn) [AVI-287]: the Average % competition stood at 0%.

One may read the IC50 as the concentration needed to halve the response being measured. Consider `O=C1COc2cc(C(=O)N3CC(C(=O)O)c4ccccc43)ccc2N1` (stereo not drawn) [AVI-289], for which, under “dose-response, read-out: IC50”, the IC50 was more than 1000 µM.

The molecule `Cc1nc2cc(NC(=O)C3CC(=O)Nc4ccccc43)ccc2o1` (stereo not drawn) [AVI-292] showed an Average % competition of 0%.

For the molecule `Cc1ncc(CN(C)C(=O)c2cccc(N)c2F)s1` [AVI-293], the 50% inhibitory concentration (IC50) (dose-response, read-out: IC50) was more than 1000 µM. Besides, under setting [1], the Average % competition worked out at 14%.

`CC1CN(C(=O)c2ccccc2S(C)(=O)=O)c2cccnc2O1` (stereo not drawn) [AVI-294] came in with an Average % competition of 13%.

For `CCCC1CCCC1C(=O)N[C@H]1CCc2nc(N)sc2C1` (stereo partly drawn) [AVI-298], the Average % competition is on record as less than 10%.

The molecule `CC(=O)Nc1ccc(S(=O)(=O)CCCN2C(=O)CC(C)(C(C)C)C2=O)cc1` (stereo not drawn) [AVI-299] came in with an Average % competition of 19%.

`O=C(NCCCN1C(=O)NC2(CCCC2)C1=O)c1ccc(=O)[nH]c1` [AVI-300] displayed an Average % competition of 8%.

The molecule `Cc1ccc2c(c1)C(=O)N(CCC(=O)Nc1cnc3c(c1)c(C)nn3C)C2=O` [AVI-301] displayed an Average % competition of 16%.

Consider `Cc1nnc2n1CCN(C(=O)CN1C(=O)CCOc3ccccc31)C2` [AVI-302], for which the Average % competition is on record as 0%.

Take `CC(OC(=O)c1ccc2nc(N)sc2c1)C(=O)N1CCCCCC1` (stereo not drawn) [AVI-304]: the Average % competition worked out at 0%.

In the case of `CNC(=O)c1ccc(NC(=O)C2CC(=O)Nc3ccccc32)cc1` (stereo not drawn) [AVI-305], the Average % competition amounted to 0%.

With `Cc1nc(-c2cccc(NC(=O)NCc3cccs3)c2)n[nH]1` [AVI-306], under “dose-response, read-out: IC50”, the IC50 is more than 1000 µM.

`O=C1CC(C(=O)Nc2nc3c(s2)CCCC3)c2ccccc2N1` (stereo not drawn) [AVI-307]: the Average % competition is 0%.

The molecule `c1ccn2c(Sc3ncnc4ccsc34)nnc2c1` [AVI-308] gave an Average % competition of 0%.

With `CNS(=O)(=O)c1cc(C(=O)N2CCOc3ccccc32)n(C)c1` [AVI-309], the Average % competition worked out at 0%.

`Cc1ccc(O)c(C(=O)c2cnn3c(N)nnc3c2)c1` [AVI-310] returned an Average % competition of 0%.

In the case of `O=C(O)C1CN(C(=O)c2cccc3[nH]ccc23)c2ccccc21` (stereo not drawn) [AVI-314], where the note is “dose-response, read-out: IC50”, the IC50 is more than 1000 µM.

Regarding `CC(=O)Nc1ccc(NC(=O)CSc2nnnn2C2CCCC2)cc1` [AVI-315], the Average % competition turned out to be 0%.

In the case of `O=C(c1cc(C2CCCCC2)[nH]n1)N1CCCC(O)(C(F)(F)F)CC1` (stereo not drawn) [AVI-318], the Average % competition amounted to 13%.

The molecule `O=C(O)C1CN(C(=O)c2ccc3n[nH]nc3c2)c2ccccc21` (stereo not drawn) [AVI-319] yielded an Average % competition of 25%.

`Cc1ccc(C)c(CN2C(=O)NC(C)(Cc3ccc4c(c3)OCO4)C2=O)c1` (stereo not drawn) [AVI-320] registered an Average % competition of 18%.

`Cc1noc(NCc2cc3ccccc3[nH]c2=O)n1` [AVI-322] yielded an Average % competition of 0%.

As for `O=C(O)C1CN(C(=O)c2ccc3c(c2)OCCO3)CCO1` (stereo not drawn) [AVI-323], the Average % competition was determined as 7%.

`Nc1ncnc(N2CCC(C(F)(F)F)C3(CCC3)C2)c1Cl` (stereo not drawn) [AVI-324] displayed an Average % competition of less than 10%.

The molecule `CCOc1ccc(-c2nc(CC(=O)N3CCn4cccc4C3C)cs2)cc1` (stereo not drawn) [AVI-325] had an Average % competition of 0%.

Consider `O=C(O)C1CCc2nnc(-c3ccc(F)cc3)n2C1` (stereo not drawn) [AVI-326], for which the Average % competition is reported as 15%.

Regarding `Cc1nn(C)c2sc(C(=O)N3CC(C(=O)O)c4ccccc43)cc12` (stereo not drawn) [AVI-327], the Average % competition worked out at 0%.

`NC(=O)N1CCC[C@H]1C(=O)Nc1ccc2ncnn2c1` [AVI-330] yielded an Average % competition of 14%.

As for `Nc1ncnc2sc3c(c12)CCN(C(=O)[C@H]1CC=CCC1)C3` [AVI-331], the Average % competition was less than 10%.

Molecule `N#Cc1cnc(CSc2nc(-c3ccccc3)co2)nc1N` [AVI-332] showed an Average % competition of less than 10%.

On to `O=C(O)c1ccc2c(c1)C(NC(=O)C1CCn3ncnc3C1)CCC2` (stereo not drawn) [AVI-333], for which the Average % competition was 21%.

As for `CC1CCCC1OC(=O)Cn1cnc2c1c(=O)n(C)c(=O)n2C` (stereo not drawn) [AVI-335], the Average % competition was less than 10%.

`Cc1ccc(N2CCN(c3ncnc(-c4ccccc4)n3)CC2=O)cc1` [AVI-336]: the Average % competition was less than 10%.

In turn, `CC(C(=O)NCc1c(C(=O)O)[nH]c2ccccc12)n1cncn1` (stereo not drawn) [AVI-337] returned an Average % competition of 14%.

As a reminder, the Ki is a dissociation constant, usually derived from enzyme kinetics or from competition with a known ligand. In the case of `O=C1CCc2cc(C(=O)N3CC(C(=O)O)CCC34CCCC4)c(F)cc2N1` (stereo not drawn) [AVI-338], the “Ligand efficiency (binding enery per heavy atom)” value came out at 0.16. The same molecule came in with an inhibitory constant (Ki) (dose-response) of 740 µM. In addition, the concentration for half-maximal inhibition (IC50) (dose-response, read-out: IC50) was determined as 800 µM.

For the molecule `Nc1cc(N2CCC3CCCCC3C2)ncn1` (stereo not drawn) [AVI-339], the IC50 (dose-response, read-out: IC50) is more than 1000 µM. This molecule also gave an Average % competition under setting [1] of less than 10%.

Regarding `CC1(c2ccc(F)cc2)CN(C(=O)c2cnc(N)nc2C(F)(F)F)C1` [AVI-340], the Average % competition is 20%.

The molecule `Cn1ccc2cc(NC(=O)C3CC(=O)NC4CCCCC43)ccc21` (stereo not drawn) [AVI-342] showed an Average % competition of less than 10%.

In turn, `Cc1nc(N)ncc1C(=O)NCC(O)Cc1ccc(Cl)cc1` (stereo not drawn) [AVI-343] came in with an Average % competition of less than 10%.

`COc1ccc(-c2nccc(N3CCC(c4ccsc4)CC3)n2)cc1` [AVI-344] returned an Average % competition of less than 10%.

Regarding `CNc1ccc(NS(=O)(=O)c2cc3cccc(C)c3s2)cn1` [AVI-345], the inhibition at 200 µM under setting [2] was determined as 18%. Under setting [1], this molecule displayed an Average % competition of 18%.

As for `O=c1[nH]c2ccccc2cc1CNc1nc(C2CC2)ns1` [AVI-346], the IC50 (dose-response, read-out: IC50) was more than 1000 µM. Under setting [1], this molecule yielded an Average % competition of less than 10%.

With `Cc1ccc(CC(=O)N2CCSC23CC(C(=O)O)C3)cc1O` (stereo not drawn) [AVI-347], the Average % competition was less than 10%.

Consider `CC(NC(=O)c1ccc(N)nc1Cl)C(O)c1cccc(F)c1` (stereo not drawn) [AVI-349], for which the Average % competition is recorded as 15%.

`O[C@@]1(Cn2ccnn2)CCCN(c2ncnc3[nH]ccc23)C1` [AVI-608] had an Average % competition under setting [3] of 8%. The inhibition at 200 µM under setting [2] is less than 10%.

Take `O[C@@H]1CNCC[C@H]1Nc1ncnc2[nH]ccc12` [AVI-613]: under setting [4], the Average % competition is less than 10%. Besides, the inhibition at 200 µM under setting [2] is less than 10%.

`CN(C)C[C@@]1(O)CCCN(c2ncnc3[nH]ccc23)C1` [AVI-614] returned an Average % competition under setting [3] of less than 10%. Besides, under setting [2], the inhibition at 200 µM is less than 10%.

For `O[C@H]1CNCC[C@@H]1Nc1ncnc2[nH]ccc12` [AVI-615], the inhibition at 200 µM reads like this: under setting [5], less than 10%; under setting [2], less than 10%.

As to `O=C(O)C(F)(F)F.OC1c2ccccc2CC1Nc1ncnc2[nH]ccc12` (stereo not drawn) [AVI-3634], under setting [4], the Average % competition is on record as less than 10%. The inhibition at 200 µM under setting [2] was less than 10%.

Under setting [4], `O=C(O)C(F)(F)F.OCC(Nc1ncnc2[nH]ccc12)C1CCCO1` (stereo not drawn) [AVI-3645] displayed an Average % competition of 54%. Moreover, under setting [2], the inhibition at 200 µM worked out at 54%.

With `O=C(O)C(F)(F)F.OC[C@@H](CCc1ccccc1)Nc1ncnc2[nH]ccc12` [AVI-3654], the Average % competition under setting [4] came to 27%. Besides, the inhibition at 200 µM under setting [2] came to 27%.

Under setting [4], `CC(C)CCC(CO)Nc1ncnc2[nH]ccc12.O=C(O)C(F)(F)F` (stereo not drawn) [AVI-3668] registered an Average % competition of 38%. Further, the inhibition at 200 µM under setting [2] was 38%.

Turning to `O=C(O)C(F)(F)F.O=[N+]([O-])c1ccc(C(O)C(CO)Nc2ncnc3[nH]ccc23)cc1` (stereo not drawn) [AVI-3672], the Average % competition under setting [4] stood at 43%. Under setting [2], the inhibition at 200 µM stood at 43%.

Under setting [4], `O=C(O)C(F)(F)F.OCC(CC1CCOCC1)Nc1ncnc2[nH]ccc12` (stereo not drawn) [AVI-3676] had an Average % competition of less than 10%. For the same molecule, under setting [2], the inhibition at 200 µM was less than 10%.

In turn, `O=C(O)C(F)(F)F.OCC(Nc1ncnc2[nH]ccc12)C(O)C1CCCCC1` (stereo not drawn) [AVI-3687] registered an Average % competition under setting [4] of 33%. Further, the inhibition at 200 µM under setting [2] was determined as 33%.

`O=C(O)C(F)(F)F.OCC(Cc1cccc(F)c1)Nc1ncnc2[nH]ccc12` (stereo not drawn) [AVI-3706] registered an Average % competition under setting [4] of 77%. The inhibition at 200 µM under setting [2] amounted to 77%.

For the molecule `O=C(O)C(F)(F)F.OCC1C2C=CC(C2)N1c1ncnc2[nH]ccc12` (stereo not drawn) [AVI-3712], the inhibition at 200 µM is, setting by setting: under setting [5], 55%; under setting [2], 55%.

For the molecule `CC(C)(C)C(O)CC(CO)Nc1ncnc2[nH]ccc12.O=C(O)C(F)(F)F` (stereo not drawn) [AVI-3714], the Average % competition under setting [4] is reported as less than 10%. In addition, the inhibition at 200 µM under setting [2] is less than 10%.

`OC1CC(Cn2ccnc2)CC1Nc1ncnc2[nH]ccc12` (stereo not drawn) [AVI-3725] had an Average % competition under setting [4] of 29%. Besides, the inhibition at 200 µM under setting [2] is 29%.

`Cc1c[nH]c2ncnc(NCC3(O)CCCCC3)c12` [AVI-3761, 1-(((5-methyl-7H-pyrrolo[2,3-d]pyrimidin-4-yl)amino)methyl)cyclohexan-1-ol] showed a Ki of 12 µM. Moreover, the IC50 under setting [6] came out at 13 µM.

As for `CC(O)C1CCCN1c1ncnc2[nH]ccc12` (stereo not drawn) [AVI-4062], where the note is “HTRF”, the “fold decrease in affinity relative to AVI-607” value is recorded as ~ 10 fold. Under setting [7], affinity was put at a Ki of 51 µM and the “Ligand efficiency (binding enery per heavy atom)” value is recorded as 0.35. Further, the IC50 under setting [6] is 55 µM.

`C[C@H]1CC[C@H](CO)N(c2ncnc3[nH]ccc23)C1` [AVI-4063]: under setting [7], the affinity, expressed as Ki, was 52 µM and the “Ligand efficiency (binding enery per heavy atom)” value came out at 0.33. In addition, the IC50 under setting [8] came to 56 µM.

Consider `OCC1CCC2(CCOCC2)CN1c1ncnc2[nH]ccc12` (stereo not drawn) [AVI-4065], for which, under setting [7], the inhibitory constant (Ki) was found to be 400 µM and the “Ligand efficiency (binding enery per heavy atom)” value is given as 0.21. Besides, the IC50 under setting [8] was determined as 430 µM.

Take `Cc1c[nH]c2ncnc(NCC3(O)CCOCC3)c12` [AVI-4194, 4-(((5-methyl-7H-pyrrolo[2,3-d]pyrimidin-4-yl)amino)methyl)tetrahydro-2H-pyran-4-ol]: under setting [7], the affinity corresponds to a Ki of 150 µM and the “Ligand efficiency (binding enery per heavy atom)” value is reported as 0.28. The IC50 under setting [8] worked out at 160 µM.
